From article PMC6357742, “Porphyromonas gingivalis in Alzheimer’s disease brains: Evidence for disease causation and treatment with small-molecule inhibitors” (Science Advances, 2019)

How the values were obtained:
P. gingivalis [1] = test: Antimicrobial effects of Aβ on P. gingivalis (LIVE/DEAD BacLight); type: cell-based; design: dose or concentration left out as unconfirmed; conditions: 37°C, anaerobic, 24 hours
[2] = system: differentiated SH-SY5Y cells exposed to RgpB and Kgp; test: Gingipain-induced aggregation of differentiated SH-SY5Y cells; type: cell-based, human; conditions: pretreatment of gingipains; RgpB and Kgp 10 μg/ml, 24 hours
[3] = system: deubiquitinating peptidases; test: Cellular protease profiling; type: biochemical
Kgp [4] = target: Kgp (Porphyromonas gingivalis, UniProt Q51817); type: binding, P. gingivalis
caspase family enzymes = test: Cellular protease profiling; type: biochemical
FVIIa = target: T1, FVIIa (Homo sapiens, UniProt P08709); test: Cellular protease profiling; type: biochemical
T1 sequence (P08709 213-466 limits assumed): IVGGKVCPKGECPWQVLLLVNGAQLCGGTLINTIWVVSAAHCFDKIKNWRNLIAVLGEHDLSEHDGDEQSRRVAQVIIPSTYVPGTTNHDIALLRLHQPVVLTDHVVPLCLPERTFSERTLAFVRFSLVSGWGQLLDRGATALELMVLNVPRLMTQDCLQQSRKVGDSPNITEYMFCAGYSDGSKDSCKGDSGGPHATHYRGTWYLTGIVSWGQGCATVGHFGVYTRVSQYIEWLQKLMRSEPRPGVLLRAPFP
T1 sequence (P08709 61-212 partner limits assumed): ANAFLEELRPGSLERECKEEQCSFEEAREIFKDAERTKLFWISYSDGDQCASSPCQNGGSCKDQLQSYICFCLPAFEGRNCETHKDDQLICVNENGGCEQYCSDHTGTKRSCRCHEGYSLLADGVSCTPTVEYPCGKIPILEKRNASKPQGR

[5] = Oral pharmacokinetic properties and CNS penetration; conditions: in vivo
tryptase = test: Cellular protease profiling; type: biochemical
BACE1 = BACE1 (Homo sapiens, UniProt P56817); test: Cellular protease profiling; type: biochemical
cathepsin S = cathepsin S (Homo sapiens, UniProt P25774); test: Cellular protease profiling; type: biochemical
P. gingivalis [6] = test: Kgp-dependent growth of P. gingivalis in defined medium; type: cell-based; conditions: 500 nM, over 43 hours
FXa = FXa (Homo sapiens, UniProt P00742); test: Cellular protease profiling; type: biochemical
calpain = test: Cellular protease profiling; type: biochemical
P. gingivalis [7] = type: cell-based
thrombin = thrombin (Homo sapiens, UniProt P00734); test: Cellular protease profiling; type: biochemical
plasmin = plasmin (Homo sapiens, UniProt P00747); test: Cellular protease profiling; type: biochemical
P. gingivalis W83 = test: P. gingivalis oral infection in mice, Experiment 3 (brain qPCR, Aβ1–42 and TNFα ELISA); type: in vivo, BALB/c mice; conditions: days 36 to 70
Kgp [8] = target: T2, Kgp (Porphyromonas gingivalis, UniProt B2RLK2); type: binding, P. gingivalis; conditions: human oral subgingival plaque, preincubation with COR388
Kgp [9] = target: T2, Kgp; type: biochemical, P. gingivalis; conditions: recovery of enzyme activity following dilution of enzyme/inhibitor complexes
proteasome = test: Cellular protease profiling; type: biochemical
DPP4 = DPP4 (Homo sapiens, UniProt P27487); test: Cellular protease profiling; type: biochemical
[10] = system: SH-SY5Y cells infected with P. gingivalis W83; test: AlamarBlue viability of SH-SY5Y cells challenged with P. gingivalis; type: cell-based, human; conditions: W83 strain, MOI of 400, 48 hours
[11] = 10 and 30 mg/kg oral twice daily

Aβ1–42: Recombinant Aβ (1-42) Ultra-Pure, Ammonium Hydroxide (rProtein)
viability of P. gingivalis (P. gingivalis [1]): decreased viability

NC(=O)CI [iodoacetamide]
gingipain-induced cell aggregation [2]: prevented gingipain-induced aggregation

NCCCC[C@H](NC(=O)C1CCCC1)C(=O)COc1c(F)ccc(F)c1F [COR388]
IC50 [3]: > 10 µM
Kgp target engagement (COR553 probe binding after preincubation) (Kgp [4]): block of COR553 activity probe binding
IC50 (caspase family enzymes): > 10 µM
IC50 (FVIIa): > 10 µM
CNS penetration [5]: significant CNS penetration
oral bioavailability / oral pharmacokinetics ([5]; po): superior oral pharmacokinetic
IC50 (tryptase): > 10 µM
IC50 (BACE1): > 10 µM
IC50 (cathepsin S): > 10 µM
growth of P. gingivalis in defined growth medium (P. gingivalis [6]): inhibited the growth
IC50 (FXa): > 10 µM
IC50 (calpain): > 10 µM
development of resistance on repeat passaging (P. gingivalis [7]): did not develop
IC50 (thrombin): > 10 µM
IC50 (plasmin): > 10 µM
Aβ1–42 level in brain tissue (P. gingivalis W83; 3 mg/kg oral twice daily): did not reduce
P. gingivalis load in brain tissue (P. gingivalis W83; 3 mg/kg oral twice daily): some reduction
TNFα level in brain tissue (P. gingivalis W83; 3 mg/kg oral twice daily): did not reduce
Aβ1–42 level in brain tissue compared to infected vehicle (P. gingivalis W83; [11]): reduced
P. gingivalis load in brain tissue compared to infected vehicle (P. gingivalis W83; [11]): reduced
TNFα level in brain tissue compared to infected vehicle (P. gingivalis W83; [11]): reduced
Kgp target engagement ex vivo (COR553 probe binding after preincubation) (Kgp [8]): blocked probe binding to the active site
mode of inhibition (Kgp [9]): irreversible binding kinetics
IC50 (proteasome): > 10 µM
IC50 (DPP4): > 10 µM

C[C@H]1c2cccc(O)c2C(=O)C2=C(O)[C@]3(O)C(=O)C(C(N)=O)=C(O)[C@@H](N(C)C)[C@@H]3[C@@H](O)[C@@H]21 [doxycycline]
protection against P. gingivalis–induced cell death [10]: did not protect the cells

CC(C)[C@H](O)C(=O)N[C@@H](C)C(=O)N[C@@H]1C(=O)N(C)CCc2ccccc21 [semagacestat]
protection against P. gingivalis–induced cell death [10]: no protective effect

COc1c(N2C[C@@H]3CCCN[C@@H]3C2)c(F)cc2c(=O)c(C(=O)O)cn(C3CC3)c12 [moxifloxacin]
development of resistance on repeat passaging (P. gingivalis [7]): complete resistance
increase of minimum inhibitory concentration (MIC) on passaging (P. gingivalis [7]; 12 passages): over 1000 fold
protection against P. gingivalis–induced cell death [10]: did not protect the cells
